From publication PMC7385619, “A triple action CDK4/6-PI3K-BET inhibitor with augmented cancer cell cytotoxicity” (Cell Discovery, 2020)

Assays:
Experiment in all cases: KINOMEscan assay (Eurofins DiscoverX)
Type in all cases: binding
kinome (kinase panel) [1] = target: T1, kinome (kinase panel) (Homo sapiens, UniProt Q15759); conditions: p38-beta (Entrez MAPK11); 1000 nM; read-out: Percent Control
T1 construct: purchased Eurofins DiscoverX

kinome (kinase panel) [2] = target: T2, kinome (kinase panel) (Homo sapiens, UniProt Q9H4B4); conditions: PLK3; 1000 nM; read-out: Percent Control
T2 construct: purchased Eurofins DiscoverX

kinome (kinase panel) [3] = target: T3, kinome (kinase panel) (Homo sapiens, UniProt Q96PN8); conditions: TSSK3; 1000 nM; read-out: Percent Control
T3 construct: purchased Eurofins DiscoverX

kinome (kinase panel) [4] = target: T4, kinome (kinase panel) (Homo sapiens, UniProt Q9UBF8); conditions: PIK4CB (Entrez PI4KB); 1000 nM; read-out: Percent Control
T4 construct: purchased Eurofins DiscoverX

kinome (kinase panel) [5] = target: T5, kinome (kinase panel) (Homo sapiens, UniProt P08631); conditions: HCK; 1000 nM; read-out: Percent Control
T5 construct: purchased Eurofins DiscoverX

kinome (kinase panel) [6] = target: T6, kinome (kinase panel) (Homo sapiens, UniProt P17948); conditions: FLT1; 1000 nM; read-out: Percent Control
T6 construct: purchased Eurofins DiscoverX

kinome (kinase panel) [7] = target: T7, kinome (kinase panel) (Homo sapiens, UniProt Q6PHR2); conditions: ULK3; 1000 nM; read-out: Percent Control
T7 construct: purchased Eurofins DiscoverX

kinome (kinase panel) [8] = target: T8, kinome (kinase panel) (Homo sapiens, UniProt P52564); conditions: MEK6 (Entrez MAP2K6); 1000 nM; read-out: Percent Control
T8 construct: purchased Eurofins DiscoverX

kinome (kinase panel) [9] = target: T9, kinome (kinase panel) (Homo sapiens, UniProt P16234); conditions: PDGFRA; 1000 nM; read-out: Percent Control
T9 construct: purchased Eurofins DiscoverX

kinome (kinase panel) [10] = target: T10, kinome (kinase panel) (Homo sapiens, UniProt Q9BZL6); conditions: PRKD2; 1000 nM; read-out: Percent Control
T10 construct: purchased Eurofins DiscoverX

kinome (kinase panel) [11] = target: T11, kinome (kinase panel) (Plasmodium falciparum, UniProt P62344); conditions: PFCDPK1(P.falciparum) (Entrez CDPK1); 1000 nM; read-out: Percent Control
T11 construct: purchased Eurofins DiscoverX

kinome (kinase panel) [12] = target: T12, kinome (kinase panel) (Homo sapiens, UniProt Q7KZI7); conditions: MARK2; 1000 nM; read-out: Percent Control
T12 construct: purchased Eurofins DiscoverX

kinome (kinase panel) [13] = target: T13, kinome (kinase panel) (Homo sapiens, UniProt Q9NRH2); conditions: SNRK; 1000 nM; read-out: Percent Control
T13 construct: purchased Eurofins DiscoverX

kinome (kinase panel) [14] = target: T14, kinome (kinase panel) (Homo sapiens, UniProt P54760); conditions: EPHB4; 1000 nM; read-out: Percent Control
T14 construct: purchased Eurofins DiscoverX

kinome (kinase panel) [15] = target: T15, kinome (kinase panel) (Homo sapiens, UniProt Q16816); conditions: PHKG1; 1000 nM; read-out: Percent Control
T15 construct: purchased Eurofins DiscoverX

kinome (kinase panel) [16] = target: T16, kinome (kinase panel) (Homo sapiens, UniProt P49137); conditions: MAPKAPK2; 1000 nM; read-out: Percent Control
T16 construct: purchased Eurofins DiscoverX

kinome (kinase panel) [17] = target: T17, kinome (kinase panel) (Homo sapiens, UniProt O14757); conditions: CHEK1; 1000 nM; read-out: Percent Control
T17 construct: purchased Eurofins DiscoverX

kinome (kinase panel) [18] = target: T18, kinome (kinase panel) (Homo sapiens, UniProt P20794); conditions: MAK; 1000 nM; read-out: Percent Control
T18 construct: purchased Eurofins DiscoverX

kinome (kinase panel) [19] = target: T19, kinome (kinase panel) (Homo sapiens, UniProt Q15375); conditions: EPHA7; 1000 nM; read-out: Percent Control
T19 construct: purchased Eurofins DiscoverX

kinome (kinase panel) [20] = target: T20, kinome (kinase panel) (Homo sapiens, UniProt O75914); conditions: PAK3; 1000 nM; read-out: Percent Control
T20 construct: purchased Eurofins DiscoverX

kinome (kinase panel) [21] = target: T21, kinome (kinase panel) (Homo sapiens, UniProt P11362); conditions: FGFR1; 1000 nM; read-out: Percent Control
T21 construct: purchased Eurofins DiscoverX

kinome (kinase panel) [22] = target: T22, kinome (kinase panel) (Mycobacterium tuberculosis, UniProt P9WI81); conditions: PKNB(M.tuberculosis) (Entrez pknB); 1000 nM; read-out: Percent Control
T22 construct: purchased Eurofins DiscoverX

kinome (kinase panel) [23] = target: T23, kinome (kinase panel) (Homo sapiens, UniProt Q8IY84); conditions: NIM1 (Entrez MGC42105); 1000 nM; read-out: Percent Control
T23 construct: purchased Eurofins DiscoverX

kinome (kinase panel) [24] = target: T24, kinome (kinase panel) (Homo sapiens, UniProt O14936); conditions: CASK; 1000 nM; read-out: Percent Control
T24 construct: purchased Eurofins DiscoverX

kinome (kinase panel) [25] = target: T25, kinome (kinase panel) (Homo sapiens, UniProt Q8NFD2); conditions: ANKK1; 1000 nM; read-out: Percent Control
T25 construct: purchased Eurofins DiscoverX

kinome (kinase panel) [26] = target: T26, kinome (kinase panel) (Homo sapiens, UniProt Q00532); conditions: CDKL1; 1000 nM; read-out: Percent Control
T26 construct: purchased Eurofins DiscoverX

kinome (kinase panel) [27] = target: T27, kinome (kinase panel) (Homo sapiens, UniProt Q13164); conditions: ERK5 (Entrez MAPK7); 1000 nM; read-out: Percent Control
T27 construct: purchased Eurofins DiscoverX

kinome (kinase panel) [28] = target: T28, kinome (kinase panel) (Homo sapiens, UniProt Q8WXR4); conditions: MYO3B; 1000 nM; read-out: Percent Control
T28 construct: purchased Eurofins DiscoverX

kinome (kinase panel) [29] = target: T29, kinome (kinase panel) (Homo sapiens, UniProt P41743); conditions: PRKCI; 1000 nM; read-out: Percent Control
T29 construct: purchased Eurofins DiscoverX

kinome (kinase panel) [30] = target: T30, kinome (kinase panel) (Homo sapiens, UniProt P15056); conditions: BRAF; 1000 nM; read-out: Percent Control
T30 construct: purchased Eurofins DiscoverX

kinome (kinase panel) [31] = target: T31, kinome (kinase panel) (Homo sapiens, UniProt P10721, D816H); conditions: […]; 1000 nM; read-out: Percent Control
T31 construct: purchased Eurofins DiscoverX

kinome (kinase panel) [32] = target: T32, kinome (kinase panel) (Homo sapiens, UniProt Q13554); conditions: CAMK2B; 1000 nM; read-out: Percent Control
T32 construct: purchased Eurofins DiscoverX

T16 sequence (P49137 whole entry): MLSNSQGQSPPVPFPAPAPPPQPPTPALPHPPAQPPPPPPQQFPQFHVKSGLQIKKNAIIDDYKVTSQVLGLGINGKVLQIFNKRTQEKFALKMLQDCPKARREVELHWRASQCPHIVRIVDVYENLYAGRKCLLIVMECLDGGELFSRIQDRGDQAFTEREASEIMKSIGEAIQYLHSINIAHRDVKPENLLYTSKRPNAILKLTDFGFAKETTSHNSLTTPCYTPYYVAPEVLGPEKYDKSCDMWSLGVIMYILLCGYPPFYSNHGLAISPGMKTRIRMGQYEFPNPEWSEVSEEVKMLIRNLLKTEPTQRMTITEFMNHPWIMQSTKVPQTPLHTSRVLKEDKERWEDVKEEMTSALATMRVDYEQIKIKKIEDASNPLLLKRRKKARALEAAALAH
T11 sequence (P62344 whole entry): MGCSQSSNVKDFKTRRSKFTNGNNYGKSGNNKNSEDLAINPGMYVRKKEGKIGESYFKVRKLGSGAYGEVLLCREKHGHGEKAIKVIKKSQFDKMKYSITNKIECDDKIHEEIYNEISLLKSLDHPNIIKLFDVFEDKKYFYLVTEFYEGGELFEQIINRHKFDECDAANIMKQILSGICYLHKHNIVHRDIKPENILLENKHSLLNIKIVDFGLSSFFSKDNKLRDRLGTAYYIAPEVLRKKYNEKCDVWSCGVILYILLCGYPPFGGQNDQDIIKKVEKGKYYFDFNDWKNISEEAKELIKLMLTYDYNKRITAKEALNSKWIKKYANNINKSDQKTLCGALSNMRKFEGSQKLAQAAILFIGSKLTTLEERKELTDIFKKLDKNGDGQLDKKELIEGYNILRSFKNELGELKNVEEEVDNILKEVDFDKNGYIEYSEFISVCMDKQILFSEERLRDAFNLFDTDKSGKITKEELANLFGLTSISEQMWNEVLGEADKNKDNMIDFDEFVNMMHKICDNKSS
T23 sequence (Q8IY84 whole entry): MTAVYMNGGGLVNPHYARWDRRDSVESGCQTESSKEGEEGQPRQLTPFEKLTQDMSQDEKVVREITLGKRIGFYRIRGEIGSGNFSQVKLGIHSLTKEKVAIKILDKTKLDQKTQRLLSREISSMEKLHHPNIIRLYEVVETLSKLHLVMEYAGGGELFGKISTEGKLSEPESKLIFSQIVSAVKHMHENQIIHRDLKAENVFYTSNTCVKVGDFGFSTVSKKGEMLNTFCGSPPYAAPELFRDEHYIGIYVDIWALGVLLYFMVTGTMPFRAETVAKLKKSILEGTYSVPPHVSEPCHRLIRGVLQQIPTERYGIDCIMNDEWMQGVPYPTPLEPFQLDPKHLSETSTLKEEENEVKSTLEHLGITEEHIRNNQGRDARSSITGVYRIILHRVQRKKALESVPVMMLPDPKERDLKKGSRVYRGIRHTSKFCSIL
T29 sequence (P41743 whole entry): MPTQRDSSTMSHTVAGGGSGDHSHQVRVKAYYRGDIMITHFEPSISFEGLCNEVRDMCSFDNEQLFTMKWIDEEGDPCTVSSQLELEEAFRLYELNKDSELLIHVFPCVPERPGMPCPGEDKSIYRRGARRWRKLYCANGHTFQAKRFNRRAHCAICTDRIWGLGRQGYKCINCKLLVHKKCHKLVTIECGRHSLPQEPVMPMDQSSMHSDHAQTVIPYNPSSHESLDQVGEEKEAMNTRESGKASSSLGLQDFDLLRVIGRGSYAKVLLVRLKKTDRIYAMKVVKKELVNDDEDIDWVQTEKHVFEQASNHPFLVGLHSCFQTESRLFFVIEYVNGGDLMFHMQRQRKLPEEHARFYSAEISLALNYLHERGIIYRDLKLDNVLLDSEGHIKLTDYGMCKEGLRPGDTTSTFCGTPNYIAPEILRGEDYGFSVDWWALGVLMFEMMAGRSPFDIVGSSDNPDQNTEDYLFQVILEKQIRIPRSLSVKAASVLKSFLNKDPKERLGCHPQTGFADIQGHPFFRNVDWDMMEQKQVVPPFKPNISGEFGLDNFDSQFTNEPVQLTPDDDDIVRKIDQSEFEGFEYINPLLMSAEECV
T30 sequence (P15056 whole entry): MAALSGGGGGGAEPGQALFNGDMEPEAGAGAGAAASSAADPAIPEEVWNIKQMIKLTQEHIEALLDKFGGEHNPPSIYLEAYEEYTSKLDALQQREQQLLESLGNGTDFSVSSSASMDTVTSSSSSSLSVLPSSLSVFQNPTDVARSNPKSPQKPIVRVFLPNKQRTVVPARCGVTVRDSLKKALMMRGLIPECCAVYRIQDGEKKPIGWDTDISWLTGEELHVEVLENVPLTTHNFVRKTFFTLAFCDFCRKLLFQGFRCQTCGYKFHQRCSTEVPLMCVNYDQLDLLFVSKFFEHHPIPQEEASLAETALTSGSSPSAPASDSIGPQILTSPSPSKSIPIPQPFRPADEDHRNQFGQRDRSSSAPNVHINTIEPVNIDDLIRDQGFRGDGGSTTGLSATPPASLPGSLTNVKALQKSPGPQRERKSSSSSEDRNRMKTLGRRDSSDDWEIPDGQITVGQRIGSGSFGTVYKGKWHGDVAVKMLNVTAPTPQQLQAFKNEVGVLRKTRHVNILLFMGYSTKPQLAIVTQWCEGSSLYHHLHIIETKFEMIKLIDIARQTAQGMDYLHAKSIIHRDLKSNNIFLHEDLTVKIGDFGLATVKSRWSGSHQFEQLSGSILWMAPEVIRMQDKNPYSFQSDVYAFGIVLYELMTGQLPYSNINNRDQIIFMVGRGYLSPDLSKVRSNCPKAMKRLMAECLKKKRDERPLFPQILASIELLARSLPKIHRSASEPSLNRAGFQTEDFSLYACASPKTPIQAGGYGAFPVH
T7 sequence (Q6PHR2 whole entry): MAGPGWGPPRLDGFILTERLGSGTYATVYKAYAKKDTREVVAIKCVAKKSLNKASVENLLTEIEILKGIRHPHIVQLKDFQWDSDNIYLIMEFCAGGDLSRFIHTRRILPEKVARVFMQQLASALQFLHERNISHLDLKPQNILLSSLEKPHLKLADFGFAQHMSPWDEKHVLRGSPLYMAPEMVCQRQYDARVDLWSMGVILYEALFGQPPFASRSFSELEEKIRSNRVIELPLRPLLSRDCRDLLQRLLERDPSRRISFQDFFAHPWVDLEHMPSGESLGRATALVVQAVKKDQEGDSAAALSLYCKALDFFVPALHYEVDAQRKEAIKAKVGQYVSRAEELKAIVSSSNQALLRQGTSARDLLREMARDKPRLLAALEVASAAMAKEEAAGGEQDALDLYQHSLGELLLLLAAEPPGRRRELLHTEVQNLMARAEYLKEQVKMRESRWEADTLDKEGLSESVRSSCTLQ
T24 sequence (O14936 whole entry): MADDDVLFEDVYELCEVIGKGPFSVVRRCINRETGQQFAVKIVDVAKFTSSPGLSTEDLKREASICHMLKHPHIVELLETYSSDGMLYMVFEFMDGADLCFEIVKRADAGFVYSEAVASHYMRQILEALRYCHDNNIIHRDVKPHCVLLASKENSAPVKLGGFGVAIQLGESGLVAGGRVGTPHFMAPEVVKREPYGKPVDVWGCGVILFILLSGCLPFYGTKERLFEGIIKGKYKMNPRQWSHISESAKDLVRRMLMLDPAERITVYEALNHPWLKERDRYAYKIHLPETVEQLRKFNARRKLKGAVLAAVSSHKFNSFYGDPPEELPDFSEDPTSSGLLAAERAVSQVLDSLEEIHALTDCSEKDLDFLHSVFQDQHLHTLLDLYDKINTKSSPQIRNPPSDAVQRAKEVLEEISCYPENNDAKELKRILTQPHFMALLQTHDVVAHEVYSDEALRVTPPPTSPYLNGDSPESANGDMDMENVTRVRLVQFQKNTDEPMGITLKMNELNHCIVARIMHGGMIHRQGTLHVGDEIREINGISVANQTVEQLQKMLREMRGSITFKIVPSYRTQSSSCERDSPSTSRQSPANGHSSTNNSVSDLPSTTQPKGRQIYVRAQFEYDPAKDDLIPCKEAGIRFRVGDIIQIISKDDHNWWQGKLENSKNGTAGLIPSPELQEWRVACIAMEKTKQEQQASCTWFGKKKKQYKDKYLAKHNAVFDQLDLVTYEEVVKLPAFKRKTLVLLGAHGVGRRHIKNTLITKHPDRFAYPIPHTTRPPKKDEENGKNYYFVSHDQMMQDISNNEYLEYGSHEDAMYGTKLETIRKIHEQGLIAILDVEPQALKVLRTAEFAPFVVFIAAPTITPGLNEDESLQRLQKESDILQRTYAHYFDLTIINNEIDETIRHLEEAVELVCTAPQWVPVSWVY
T8 sequence (P52564 whole entry): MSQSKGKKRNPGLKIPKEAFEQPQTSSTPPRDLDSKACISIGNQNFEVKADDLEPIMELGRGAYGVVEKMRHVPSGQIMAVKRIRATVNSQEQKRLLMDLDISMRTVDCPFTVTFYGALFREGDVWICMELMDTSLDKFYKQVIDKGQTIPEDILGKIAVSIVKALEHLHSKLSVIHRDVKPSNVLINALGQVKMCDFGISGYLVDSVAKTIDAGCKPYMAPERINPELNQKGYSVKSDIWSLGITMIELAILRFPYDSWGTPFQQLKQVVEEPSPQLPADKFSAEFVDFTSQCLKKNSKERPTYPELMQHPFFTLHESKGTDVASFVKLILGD
T26 sequence (Q00532 whole entry): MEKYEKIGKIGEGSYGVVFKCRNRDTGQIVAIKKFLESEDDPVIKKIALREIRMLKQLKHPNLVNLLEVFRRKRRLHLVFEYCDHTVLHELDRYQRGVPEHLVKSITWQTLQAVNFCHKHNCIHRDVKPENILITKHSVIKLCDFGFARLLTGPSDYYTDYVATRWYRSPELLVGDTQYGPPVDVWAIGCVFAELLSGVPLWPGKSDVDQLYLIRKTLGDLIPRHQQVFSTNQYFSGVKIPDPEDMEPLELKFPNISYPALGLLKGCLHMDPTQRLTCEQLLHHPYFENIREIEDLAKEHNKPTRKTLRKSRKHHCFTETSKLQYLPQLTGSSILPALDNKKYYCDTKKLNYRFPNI

**Q.** For `CN(C)C(=O)c1cc2cnc(Nc3ccc(-c4csc5c(=O)cc(N6CCOCC6)oc45)cc3)nc2n1C1CCCC1` [SRX3177], which remaining binding at 1 µM (kinome (kinase panel) [1]) is on record?
**A.** 100%

**Q.** What about the remaining binding at 1 µM (kinome (kinase panel) [2]) of the same compound?
**A.** 79%

**Q.** What about the remaining binding at 1 µM (kinome (kinase panel) [3]) of the same compound?
**A.** 100%

**Q.** And the remaining binding at 1 µM (kinome (kinase panel) [4])?
**A.** 19%

**Q.** What about the remaining binding at 1 µM (kinome (kinase panel) [5]) of the same compound?
**A.** 100%

**Q.** And the remaining binding at 1 µM (kinome (kinase panel) [6])?
**A.** 91%

**Q.** And the remaining binding at 1 µM (kinome (kinase panel) [7])?
**A.** 51%

**Q.** What about the remaining binding at 1 µM (kinome (kinase panel) [8]) of the same compound?
**A.** 100%

**Q.** What about the remaining binding at 1 µM (kinome (kinase panel) [9]) of the same compound?
**A.** 60%

**Q.** What about the remaining binding at 1 µM (kinome (kinase panel) [10]) of the same compound?
**A.** 100%

**Q.** What about the remaining binding at 1 µM (kinome (kinase panel) [11]) of the same compound?
**A.** 71%

**Q.** What about the remaining binding at 1 µM (kinome (kinase panel) [12]) of the same compound?
**A.** 96%

**Q.** What about the remaining binding at 1 µM (kinome (kinase panel) [13]) of the same compound?
**A.** 82%

**Q.** What about the remaining binding at 1 µM (kinome (kinase panel) [14]) of the same compound?
**A.** 98%

**Q.** And the remaining binding at 1 µM (kinome (kinase panel) [15])?
**A.** 88%

**Q.** What about the remaining binding at 1 µM (kinome (kinase panel) [16]) of the same compound?
**A.** 100%

**Q.** What about the remaining binding at 1 µM (kinome (kinase panel) [17]) of the same compound?
**A.** 100%

**Q.** And the remaining binding at 1 µM (kinome (kinase panel) [18])?
**A.** 87%

**Q.** What about the remaining binding at 1 µM (kinome (kinase panel) [19]) of the same compound?
**A.** 100%

**Q.** What about the remaining binding at 1 µM (kinome (kinase panel) [20]) of the same compound?
**A.** 100%

**Q.** And the remaining binding at 1 µM (kinome (kinase panel) [21])?
**A.** 100%

**Q.** And the remaining binding at 1 µM (kinome (kinase panel) [22])?
**A.** 40%

**Q.** What about the remaining binding at 1 µM (kinome (kinase panel) [23]) of the same compound?
**A.** 69%

**Q.** What about the remaining binding at 1 µM (kinome (kinase panel) [24]) of the same compound?
**A.** 35%

**Q.** What about the remaining binding at 1 µM (kinome (kinase panel) [25]) of the same compound?
**A.** 50%

**Q.** And the remaining binding at 1 µM (kinome (kinase panel) [26])?
**A.** 96%

**Q.** What about the remaining binding at 1 µM (kinome (kinase panel) [27]) of the same compound?
**A.** 96%

**Q.** What about the remaining binding at 1 µM (kinome (kinase panel) [28]) of the same compound?
**A.** 100%

**Q.** What about the remaining binding at 1 µM (kinome (kinase panel) [29]) of the same compound?
**A.** 89%

**Q.** What about the remaining binding at 1 µM (kinome (kinase panel) [30]) of the same compound?
**A.** 79%

**Q.** What about the remaining binding at 1 µM (kinome (kinase panel) [31]) of the same compound?
**A.** 28%

**Q.** And the remaining binding at 1 µM (kinome (kinase panel) [32])?
**A.** 82%
